Reference: ChEMBL document CHEMBL1133290, “Quantitative structure-intestinal permeability relationship of benzamidine analogue thrombin inhibitor” (2000)

Species on record: Rattus norvegicus
Assay: Everted sac permeability (ESA) of rat small intestine, after addition of thrombin inhibitor
Type: functional
`CC(=O)N1CCN(C(=O)C(Cc2cccc(C(=N)N)c2)NS(=O)(=O)NCc2c(F)c(F)c(F)c(F)c2F)CC1` (stereo unspecified) was tested, and the “Log ESA” value was -0.65. For `CC(CNS(=O)(=O)NC(Cc1cccc(C(=N)N)c1)C(=O)N1CCCC(C(=O)O)C1)c1ccccc1` (stereo in doubt; 9), the “Log ESA” value was -0.762. In the case of `CNC1CCN(C(=O)C(Cc2cccc(C(=N)N)c2)NS(=O)(=O)NCc2cccc(OC)c2OC)CC1` (stereo unspecified), the “Log ESA” value was -0.686. For `COc1cccc(CNS(=O)(=O)NC(Cc2cccc(C(=N)N)c2)C(=O)N2CCN(C(C)=O)CC2)c1` (stereo unspecified), the “Log ESA” value was -0.804. In the case of `COc1cccc(CNS(=O)(=O)NC(Cc2cccc(C(=N)N)c2)C(=O)N2Cc3ccccc3C2C(=O)O)c1OC` (stereo unspecified), the “Log ESA” value was -0.879. With `CC(=O)N1CCN(C(=O)C(Cc2cccc(C(=N)N)c2)NS(=O)(=O)NCCc2ccc3c(c2)OCCO3)CC1` (stereo unspecified) the “Log ESA” value was -0.654. In the case of `CC(=O)N1CCN(C(=O)C(Cc2cccc(C(=N)N)c2)NS(=O)(=O)NCC2COc3ccccc3O2)CC1` (stereo unspecified), the “Log ESA” value was -0.726. For `CCOc1ccccc1CNS(=O)(=O)NC(Cc1cccc(C(=N)N)c1)C(=O)N1CCN(C(C)=O)CC1` (stereo unspecified), the “Log ESA” value was -0.876. In the case of `CC(=O)N1CCN(C(=O)C(Cc2cccc(C(=N)N)c2)NS(=O)(=O)NCCc2cc3c(cc2[N+](=O)[O-])OCO3)CC1` (stereo unspecified), the “Log ESA” value was -0.564. With `CC(=O)N1CCN(C(=O)C(Cc2cccc(C(=N)N)c2)NS(=O)(=O)NCc2ccc(-c3ccccc3)cc2)CC1` (stereo unspecified) the “Log ESA” value was -1.174. `N=C(N)c1cccc(CC(NS(=O)(=O)NCc2cccc3ccccc23)C(=O)N2CCCC(C(=O)O)C2)c1` (stereo in doubt; 12) was tested, and the “Log ESA” value was -0.893. With `CC(=O)N1CCN(C(=O)C(Cc2cccc(C(=N)N)c2)NS(=O)(=O)NCCc2cccc(N)c2)CC1` (stereo unspecified) the “Log ESA” value was -0.75. In the case of `CC(=O)N1CCN(C(=O)C(Cc2cccc(C(=N)N)c2)NS(=O)(=O)NCC(c2ccccc2)c2ccccc2)CC1` (stereo unspecified), the “Log ESA” value was -1.092. With `COc1cccc(CNS(=O)(=O)NC(Cc2cccc(C(=N)N)c2)C(=O)N2CCN(CCO)CC2)c1OC` (stereo unspecified) the “Log ESA” value was -0.796. `CC(=O)N1CCN(C(=O)C(Cc2cccc(C(=N)N)c2)NS(=O)(=O)NCc2ccccc2)CC1` (stereo unspecified) was tested, and the “Log ESA” value was -0.81. With `CC(=O)N1CCN(C(=O)C(Cc2cccc(C(=N)N)c2)NS(=O)(=O)NCCc2cccc3ccccc23)CC1` (stereo unspecified) the “Log ESA” value was -1.114. For `CC(=O)N1CCN(C(=O)C(Cc2cccc(C(=N)N)c2)NS(=O)(=O)NCc2ccccc2O)CC1` (stereo unspecified), the “Log ESA” value was -0.514. `COc1ccccc1CNS(=O)(=O)NC(Cc1cccc(C(=N)N)c1)C(=O)N1CCN(C(C)=O)CC1` (stereo unspecified) was tested, and the “Log ESA” value was -0.815. With `CC(=O)N1CCN(C(=O)C(Cc2cccc(C(=N)N)c2)NS(=O)(=O)NCCc2ccc3ccccc3c2)CC1` (stereo unspecified) the “Log ESA” value was -1.032. `CC(=O)N1CCN(C(=O)C(Cc2cccc(C(=N)N)c2)NS(=O)(=O)NCCc2nccc3ccccc23)CC1` (stereo unspecified) was tested, and the “Log ESA” value was -0.635. In the case of `CC(CNS(=O)(=O)NC(Cc1cccc(C(=N)N)c1)C(=O)N1CCCC(C(=O)O)C1)c1ccccc1` (stereo in doubt; 11), the “Log ESA” value was -0.759. In the case of `CC(=O)N1CCN(C(=O)C(Cc2cccc(C(=N)N)c2)NS(=O)(=O)NCC2CCCN2Cc2ccccc2)CC1` (stereo unspecified), the “Log ESA” value was -0.963. With `CC(=O)N1CCN(C(=O)C(Cc2cccc(C(=N)N)c2)NS(=O)(=O)NCc2ccc(CCc3ccccc3)cc2)CC1` (stereo unspecified) the “Log ESA” value was -1.252. In the case of `N=C(N)c1cccc(CC(NS(=O)(=O)NCc2cccc3ccccc23)C(=O)N2CCCC(C(=O)O)C2)c1` (stereo in doubt; 10), the “Log ESA” value was -0.752. `CC(=O)N1CCN(C(=O)C(Cc2cccc(C(=N)N)c2)NS(=O)(=O)NCCc2ccc3c(c2)OCO3)CC1` (stereo unspecified) was tested, and the “Log ESA” value was -0.636. `CC(=O)N1CCN(C(=O)C(Cc2cccc(C(=N)N)c2)NS(=O)(=O)NCC(C)c2ccccc2)CC1` (stereo unspecified) was tested, and the “Log ESA” value was -0.889. For `CC(=O)N1CCN(C(=O)C(Cc2cccc(C(=N)N)c2)NS(=O)(=O)NCCCc2ccccc2C(=O)N2CCCC2)CC1` (stereo unspecified), the “Log ESA” value was -1.027. With `CC(=O)N1CCN(C(=O)C(Cc2cccc(C(=N)N)c2)NS(=O)(=O)NCc2c[nH]c3ccccc23)CC1` (stereo unspecified) the “Log ESA” value was -0.914. For `CC(=O)N1CCN(C(=O)C(Cc2cccc(C(=N)N)c2)NS(=O)(=O)NCc2cc(C)c(C)c(C)c2)CC1` (stereo unspecified), the “Log ESA” value was -0.818. For `CC(=O)N1CCN(C(=O)C(Cc2cccc(C(=N)N)c2)NS(=O)(=O)NCC(C)(c2ccccc2)c2ccccc2)CC1` (stereo unspecified), the “Log ESA” value was -1.456. In the case of `COc1cccc(CNS(=O)(=O)NC(Cc2cccc(C(=N)N)c2)C(=O)N2CCC(C)CC2C(=O)O)c1OC` (stereo unspecified), the “Log ESA” value was -1. `COc1ccc(CNS(=O)(=O)NC(Cc2cccc(C(=N)N)c2)C(=O)N2CCN(C(C)=O)CC2)c(OC)c1` (stereo unspecified) was tested, and the “Log ESA” value was -0.602. For `CC(=O)N1CCN(C(=O)C(Cc2cccc(C(=N)N)c2)NS(=O)(=O)NCCc2cccc([N+](=O)[O-])c2)CC1` (stereo unspecified), the “Log ESA” value was -0.688. For `CC(=O)N1CCN(C(=O)C(Cc2cccc(C(=N)N)c2)NS(=O)(=O)NCc2cccc3cc(O)ccc23)CC1` (stereo unspecified), the “Log ESA” value was -0.59. `CC(=O)N1CCN(C(=O)C(Cc2cccc(C(=N)N)c2)NS(=O)(=O)NCC2CNc3ccccc3C2)CC1` (stereo unspecified) was tested, and the “Log ESA” value was -0.674. For `CC(=O)N1CCN(C(=O)C(Cc2cccc(C(=N)N)c2)NS(=O)(=O)NCC2CCCCO2)CC1` (stereo unspecified), the “Log ESA” value was -0.708. In the case of `COc1ccc(CNS(=O)(=O)NC(Cc2cccc(C(=N)N)c2)C(=O)N2CCN(C(C)=O)CC2)cc1OC` (stereo unspecified), the “Log ESA” value was -0.633. With `CC(=O)N1CCN(C(=O)C(Cc2cccc(C(=N)N)c2)NS(=O)(=O)NCc2ccc3ccccc3c2)CC1` (stereo unspecified) the “Log ESA” value was -0.932. For `COc1cccc(CNS(=O)(=O)NC(Cc2cccc(C(=N)N)c2)C(=O)N2CCN(C(C)=O)CC2)c1O` (stereo unspecified), the “Log ESA” value was -0.833. For `CC(=O)N1CCN(C(=O)C(Cc2cccc(C(=N)N)c2)NS(=O)(=O)NCc2cccc3ccccc23)CC1` (stereo unspecified), the “Log ESA” value was -0.842. With `CC(=O)N1CCN(C(=O)C(Cc2cccc(C(=N)N)c2)NS(=O)(=O)NCc2ccccc2-c2ccccc2)CC1` (stereo in doubt; 5) the “Log ESA” value was -1.071. For `CCOc1c(CNS(=O)(=O)NC(Cc2cccc(C(=N)N)c2)C(=O)N2CCN(C(C)=O)CC2)sc2ccccc12` (stereo unspecified), the “Log ESA” value was -0.983. For `CC(=O)N1CCN(C(=O)C(Cc2cccc(C(=N)N)c2)NS(=O)(=O)NCCc2cccc3ncccc23)CC1` (stereo unspecified), the “Log ESA” value was -0.686. With `COc1ccc2c(CNS(=O)(=O)NC(Cc3cccc(C(=N)N)c3)C(=O)N3CCN(C(C)=O)CC3)cccc2c1` (stereo unspecified) the “Log ESA” value was -0.86. For `CC(=O)N1CCN(C(=O)C(Cc2cccc(C(=N)N)c2)NS(=O)(=O)NCc2ccc(CO)cc2)CC1` (stereo unspecified), the “Log ESA” value was -0.836. `CC(=O)N1CCN(C(=O)C(Cc2cccc(C(=N)N)c2)NS(=O)(=O)NCCOC2CCCCC2)CC1` (stereo unspecified) was tested, and the “Log ESA” value was -0.708. In the case of `CC(=O)N1CCN(C(=O)C(Cc2cccc(C(=N)N)c2)NS(=O)(=O)NCc2ccc(Cl)cc2[N+](=O)[O-])CC1` (stereo unspecified), the “Log ESA” value was -0.67. In the case of `CC(=O)N1CCN(C(=O)C(Cc2cccc(C(=N)N)c2)NS(=O)(=O)NCc2cc(Br)cc3ccccc23)CC1` (stereo unspecified), the “Log ESA” value was -1.367. With `CC(=O)N1CCN(C(=O)C(Cc2cccc(C(=N)N)c2)NS(=O)(=O)NCc2cccc(Oc3ccccc3)c2)CC1` (stereo unspecified) the “Log ESA” value was -1.149. `COc1cc(CNS(=O)(=O)NC(Cc2cccc(C(=N)N)c2)C(=O)N2CCN(C(C)=O)CC2)ccc1[N+](=O)[O-]` (stereo unspecified) was tested, and the “Log ESA” value was -0.559. In the case of `CC(=O)N1CCN(C(=O)C(Cc2cccc(C(=N)N)c2)NS(=O)(=O)NCc2ccccc2-c2ccccc2)CC1` (stereo in doubt; 20), the “Log ESA” value was -0.987.
